Experimental data published in patent US20080167379A1, “Ointment” (TAISHO PHARMACEUTICAL CO., LTD., priority 2005, published 2008).

What was measured:
[1] = Storage stability of ointment at 40° C. and 75% RH: content against initial content; assay type: physicochemical; settings: storage at 40° C. and 75% RH 1 month or 25° C. 3 months, Table 5
Procedure: To confirm the storage stability of the compound represented by formula (II) in the preparation, the content (%) of the compound after a storage at 40° C. and 75% RH against the content at the time of initiation, was determined.
To confirm the storage stability of the compound represented by formula (II) in the preparation, the contents (%) of the compound after storages at 40° C. and 75% RH, and at 50° C. against the content at the time of initiation, was determined.
To confirm the storage stability of the compound represented by formula (II) in the preparation, the contents (%) of the compound after a storage at 40° C. and 75% RH, or at 25° C. against the content at the time of initiation, was determined.

NC/Nga mice = experiment: Spontaneous scratching action after ointment application; assay type: in vivo; settings: ointment applied to NC/Nga mice; FIG. 2
Procedure: [FIG. 2] A graph showing the number of scratching action (average value ±SE, n=8) when a present ointment was applied to NC/Nga mice.
(§1) According to the methods described in the literature (Japanese Laid-open patent publication Nos. 2005-247843 and 2005-247842), measurements of the spontaneous action of scratching and the amount of transdermal water evaporation were performed with regard to the compound represented by formula (II). A test was performed, using ointments prepared in the same manner as in Example 4 to have the compound represented by formula (II) at concentrations of 0.0001% and 0.001%.

[2] = test system: BALB/c mice having the skin barrier destroyed by chafing; experiment: Transdermal water evaporation (TEWL) after ointment application; assay type: in vivo; settings: ointment applied to BALB/c mice with skin barrier destroyed by chafing, compared with base only; FIG. 3
Procedure: [FIG. 3] A graph showing the amount of transdermal evaporation of water (TEWL, average value ±SE, n=8) when a present ointment was applied to BALB/c mice having the skin barrier destroyed by chafing.
as §1

## O=C(O)CSCCCC[C@@H]1[C@@H](C#C[C@@H](O)C2CCCCC2)[C@H](O)C[C@H]1Cl [compound represented by formula (II)]
[1]
  storage stability (in words): stable in the drugs
NC/Nga mice
  number of scratching action: a decrease in the scratching action
[2]
  amount of transdermal evaporation of water (TEWL): a decrease in the amount of transdermal water evaporation
